{
  "source": "patent US20160220602A1",
  "about": "“USE OF CHINESE MEDICINE PREPARATION IN PREPARING DRUG FOR PREVENTING AND/OR TREATING CROHN'S DISEASE” (TASLY PHARMACEUTICAL GROUP CO., LTD., priority 2013, published 2016)",
  "key": {"[1]": {"system": "zebra fish Crohn's disease model established with TNBS", "experiment": "Efficacy in zebra fish Crohn's disease model (intestinal area, diameter, therapeutic ratio)", "type": "in vivo", "settings": "10 μM in fish farm water, 48 hours", "experimental": "Meanwhile, the positive control group, blank control group, Crohn's disease model group and excipient control group were set in the research. In the positive control group, the prednisolone was finally at concentration of 10 μM in fish farm water. The enema excipient disclosed in Chinese patent (CN 1192787 C) was used in the excipient control group, including adding PEG-400 solutions containing tragacanth and potassium sorbate into the fish farm water in the volume ratio of 0.3%. Wherein, the PEG-400 solution was prepared following method: adding 1.5 g of tragacanth and 2 g of potassium sorbate (particle size of 150 μm) into 28ml PEG.\n30 zebra fish were randomly given to each group. […] The image analysis software was used to analyze the pictures. Meanwhile, intestine mucosal thickness, intestinal diameter and intestinal area were observed carefully under the microscope and the intestinal diameter and intestinal area analyzed quantitatively. Therapeutic ratio of tested drug in zebra fish Crohn's disease was calculated in accordance with the intestinal area in each group. The calculation formula was present as follows: […]\nVariance analysis was used for comparison among many groups and Dunnett's T test for comparison between two groups."}, "[2]": {"system": "zebra fish Crohn's disease model", "experiment": "Histopathology of intestinal tissue in zebra fish Crohn's disease model (H&E)", "type": "in vivo", "settings": "10 μM in fish farm water"}, "[3]": {"system": "transgenic neutrophil fluorescent zebra fish Crohn's disease model", "settings": "10 μM in fish farm water"}},
  "data": [
    {"smiles": "C[C@]12C=CC(=O)C=C1CC[C@@H]1[C@@H]2[C@@H](O)C[C@@]2(C)[C@H]1CC[C@]2(O)C(=O)CO", "note": "[prednisolone]", "values": [
      {"measurement": "Intestinal area (Mean ± SD)", "setting": "[1]", "value": "48646 ± 4685"},
      {"measurement": "Intestinal area, Ratio of blank control group (Mean ± SE)", "setting": "[1]", "value": "1.31 ± 0.04"},
      {"measurement": "Intestinal diameter (Mean ± SD)", "setting": "[1]", "value": "137 ± 11"},
      {"measurement": "Intestinal diameter, Ratio of blank control group (Mean ± SE)", "setting": "[1]", "value": "1.02 ± 0.03"},
      {"measurement": "Therapeutic ratio (%) (Mean ± SE)", "setting": "[1]; from intestinal area", "value": "74±3.40", "unit": "%"},
      {"measurement": "Intestinal histopathology (H&E)", "setting": "[2]", "value": "the intestinal mucosal histopathology was improved obviously"},
      {"measurement": "Inflammation regression ratio (%) (Mean ± SE)", "setting": "[3]", "value": "81±2.48", "unit": "%"},
      {"measurement": "Number of neutrophil (Mean ± SD)", "setting": "[3]", "value": "20 ± 1"},
      {"measurement": "Number of neutrophil, Ratio of the blank control group (Mean ± SE)", "setting": "[3]", "value": "1.22 ± 0.03"}
    ]}
  ]
}
